Laboratory results from patent US20100029554A1, “Composition and Methods for Treatment of Congestive Heart Failure” (Amylin Pharmaceuticals, Inc., priority 2006, published 2010).
Where no end group is shown, it is not given here.

Key:
NIH:Swiss mice = assay: Food intake assay; assay type: in vivo, mouse; conditions: IP
Experimental: All mice (NIH:Swiss mice) are housed in a stable environment of 22 (±2)° C., 60 (±10)% humidity and a 12:12 light:dark cycle; with lights on at 0300. Mice are housed in groups of three in standard cages with ad libitum access to food (Teklad: LM 485; Madison, Wis.) and water except as noted, for at least two weeks before the experiments.
All experiments are conducted between the hours of 0700 and 0900. The mice are food deprived (food removed at 1530 hr from all animals on day prior to experiment). […] The food pellet is weighed at 30-minute, 1-hr, and 2-hr intervals to determine the amount of food eaten.
Significant test sample effects are identified by ANOVA (p<0.05). Where a significicant difference exists, test means are compared to the control mean using Dunnett's test. One-way ANOVA with Dunnett's post test is performed using GraphPad Prism version 3.01 for Windows, GraphPad Software, San Diego Calif.

[1] = tested on: Sprague Dawley rats with MI-induced CHF; assay: MI-induced CHF animal model; assay type: in vivo, rat; conditions: subcutaneous infusion 11 weeks
Experimental: Sprague Dawley rats undergo left coronary artery ligation to induce myocardial infarction (MI) and subsequently congestive heart failure. Some rats undergo sham surgery. Starting two weeks after coronary ligation, rats are treated with GLP-1 (2.5 or 25 pmol/kg/min), [Leu^14]-Exendin-4 amide (1.67 or 5 pmol/kg/min) or vehicle for 11 weeks via subcutaneous infusion. Cardiac function and remodeling are assessed by echocardiography. At the end of study, rats undergo treadmill testing, hemodynamic measurements and fasting (12 hour fasting) insulin and glucose concentration were measured and the Homeostasis Model Assessment (HOMA), a major index for insulin resistance, is calculated. Peak Oxygen uptake during exercise is measured by indirect calorimetry.
Transthoracic Doppler echocardiography is performed. Briefly, short-axis images are obtained at the papillary muscle level and 2D guided M-mode tracing are recorded at a speed of 100 mm/s. Left ventricular end-diastolic (LVEDD) and end-systolic dimensions (LVESD) are measured according the American Society for Echocardiography leading-edge method. Left atrial volume (LAV) and ejection fraction (LVEF) are measured and calculated from the long-axis view.
Pulsed-wave Doppler spectra of mitral inflow are obtained from apical 5-chamber view. The sample volume is placed at the tip of the mitral leaflets and adjusted to the position of maximal velocity. The peak of early (E) and late filling waves (A) are measured and E/A ratio are calculated. […] FIG. 2A-C. […]
Designations “L” and “H” indicate low and high dose of drug, respectively. […] The end point for treadmill test is determined by rat's inability to keep the pace of treadmill and land on the electric shock grid for over 6 seconds. The exercise capacity (EC) is calculated as EC (kgm)=Body weight (kg)×degree of grade×running distance. Oxygen consumption (VO2), carbon dioxide production (VCO2) are measured as described. Within 1 minute after the treadmill test, plasma lactate and glucose are measured. The treadmill test is run and analyzed by one investigator who is blinded to the study.

NH/Swiss mice = assay: Glucose lowering assay; assay type: in vivo, mouse; conditions: IP
Experimental: Female NH/Swiss mice (˜8-20 weeks of age), (Harlan, Indianapolis, Ind., USA), housed 3 mice per cage, are allowed ad libitum access to food and water until the start of the experiment. At two hours prior to treatment, access to food is restricted.
At the time of treatment, the tip of the tail is pricked with a needle to obtain 1 μl blood as a “pre-treatment” control blood sample. Immediately thereafter, each mouse is injected intraperitoneally (IP) with a test sample (1 nmol/kg or 2 nmol/kg) or 200 μl vehicle (10% DMSO saline). Additional blood samples are collected at 30, 60, 120, 180, and 240 minutes after injection.
Blood glucose is measured with a glucose oxidase biosensor (OneTouch® Ultra® (LifeScan, Inc., a Johnson & Johnson Company, Milpitas, Calif.)). At each time point, the effect of the test sample is expressed as the percent change in blood glucose relative to mice injected with vehicle only. Test samples and vehicle controls are also compared to their respective “pre-treatment” controls.
Significant test sample effects are identified by ANOVA (p<0.05). Where a significant difference existed, test means are compared to the control mean with Dunnett's post test using GraphPad Prism version 4.00 for Windows, GraphPad Software, San Diego Calif. USA, www.graphpad.com).

[2] = tested on: GLP-1 cyclase, rat thyroid carcinoma cells (6-23); assay: GLP-1 Cyclase (6-23) assay; assay type: cell-based; conditions: cAMP, 6-23 cells; values marked **
Experimental: (§1) Five μl of serially diluted peptides are transferred to the 384-well assay plate. Rat thyroid carcinoma cells (6-23) are detached from a tissue culture flask with Versene and washed once in buffer. Then 6-23 cells are resusupended in buffer at 3.0×10^6 cells/ml. Then 10 μl cells (3.0×10^4 cells) are added to all wells of the assay plate and cells are stimulated at room temperature in the dark for 30 minutes. The reaction is terminated with 10 μl of lysis buffer and incubated at room temperature for 4 hrs in the dark. cAMP content is measured using Perkin Elmer AlphaScreen™ cAMP assay kit and results are read on a Perkin Elmer Fusion fluorometer. The assay is completed in 384-well plates at 25 μl volumes.

Plasma stability = assay type: in vitro ADME; conditions: 20 μg/mL in plasma, 37° C., 0-5 hours
Experimental: To assess stability, the compound of interest is spiked into plasma at a concentration of 20 μg/mL. It is incubated at 37° C. for 0, 1, 2 3, 4, 5 hours in triplicate. At each time point, MeOH is added to a 96 well microtiter plate and then sample is added in a ratio of 1 part sample to 4 parts MeOH to quench the digestion reaction. Samples are mixed with multi-channel pipette or liquid handler. The plate is then centrifuged for 10 minutes and placed in an autosampler kept at 10° C. Samples are then injected into a mass spectrometer (API 3000, Applied Biosystems) equipped with an autosampler (Leap HTC Pal) and HPLC pumps (Shimadzu LC-10ADVP).

[3] = target: T1, GLP-1 receptors (RINm5f cell membranes) (Rattus norvegicus, UniProt P32301); assay: Receptor binding assay, RBA GLP (RIN); conditions: [125I] human GLP-1 displacement
T1 construct: RINm5f cells expressing endogenous GLP-1 receptors; endogenous in cells; host or cells: RINm5f cell membranes
T1 sequence (P32301 22-463): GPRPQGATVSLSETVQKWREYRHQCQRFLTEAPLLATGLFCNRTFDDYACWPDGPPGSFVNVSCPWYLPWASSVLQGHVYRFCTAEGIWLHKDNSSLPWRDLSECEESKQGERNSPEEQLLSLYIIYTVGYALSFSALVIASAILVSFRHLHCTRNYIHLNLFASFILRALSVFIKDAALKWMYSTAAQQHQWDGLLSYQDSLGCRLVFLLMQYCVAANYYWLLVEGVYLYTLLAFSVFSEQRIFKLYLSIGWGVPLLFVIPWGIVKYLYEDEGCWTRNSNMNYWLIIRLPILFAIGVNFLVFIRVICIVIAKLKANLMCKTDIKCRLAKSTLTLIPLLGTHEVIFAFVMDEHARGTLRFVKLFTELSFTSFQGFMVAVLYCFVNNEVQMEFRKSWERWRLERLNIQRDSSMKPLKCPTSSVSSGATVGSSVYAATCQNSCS
Excerpt: The well contents are harvested onto 96 well glass fiber plates using a Perkin Elmer plate harvestor. Dried glass fiber plates are combined with scintillant and counted on a Perkin Elmer scintillation counter.

[4] = tested on: GLP/GIP/CT cyclase, RIN-m5F cells; assay: GLP/GIP/CT Cyclase (RIN) assay; assay type: cell-based, rat; conditions: cAMP, values without **
Experimental: GLP/GIP/CT Cyclase (RIN) Assay
as §1, with “Rat pancreas insulinoma” for “Rat thyroid carcinoma”, “cells (RIN-m5F)” for “cells (6-23)”, “Then RIN-m5F” for “Then 6-23”, “at 2.5×10^6” for “at 3.0×10^6”, “cells (2.5×10^4” for “cells (3.0×10^4”, “25 microliter” for “25 μl”

## CC[C@H](C)[C@H](NC(=O)[C@H](Cc1ccccc1)NC(=O)[C@H](CCC(=O)O)NC(=O)[C@H](CCCCN)NC(=O)[C@H](C)NC(=O)[C@H](C)NC(=O)[C@H](CCC(N)=O)NC(=O)CNC(=O)[C@H](CCC(=O)O)NC(=O)[C@H](CC(C)C)NC(=O)[C@H](Cc1ccc(O)cc1)NC(=O)[C@H](CO)NC(=O)[C@H](CO)NC(=O)[C@@H](NC(=O)[C@H](CC(=O)O)NC(=O)[C@H](CO)NC(=O)[C@@H](NC(=O)[C@H](Cc1ccccc1)NC(=O)[C@@H](NC(=O)CNC(=O)[C@H](CCC(=O)O)NC(=O)[C@H](C)NC(=O)[C@@H](N)Cc1c[nH]cn1)[C@@H](C)O)[C@@H](C)O)C(C)C)C(=O)N[C@@H](C)C(=O)N[C@@H](Cc1c[nH]c2ccccc12)C(=O)N[C@@H](CC(C)C)C(=O)N[C@H](C(=O)N[C@@H](CCCCN)C(=O)NCC(=O)N[C@@H](CCCNC(=N)N)C(N)=O)C(C)C [Cmpd 3521, reference compound]
NIH:Swiss mice; dose 1 mg/kg
  FOOD INTAKE at 60 min: −27%
[1]
  baseline plasma lactate level: attenuated baseline plasma lactate level
  left ventricle chamber size (LVEDD, LVESD): attenuates enlargement of left ventricle chamber size
[1]; 12 hour fasting
  insulin resistance / insulin sensitivity (fasting insulin, glucose, HOMA): attenuates insulin resistance and improves insulin sensitivity
NH/Swiss mice; 80 nmol/kg
  GLU LOWERING AUC240 @80 nmol/kg: −9% @

## HGEGTFTSDLVKILEAEAVRKFIEFLKNGGPSSGAPPPS-NH2 [Cmpd 5529]
[2]
  EC50: 0.388 nM

## CC[C@H](C)[C@H](NC(=O)[C@H](Cc1ccccc1)NC(=O)[C@H](CCC(=O)O)NC(=O)[C@H](CCCCN)NC(=O)[C@H](C)NC(=O)[C@H](C)NC(=O)[C@H](CCCCN)NC(=O)[C@H](CCC(=O)O)NC(=O)[C@H](CCC(=O)O)NC(=O)[C@H](CC(C)C)NC(=O)[C@H](CCC(N)=O)NC(=O)[C@H](CCCCN)NC(=O)[C@H](CO)NC(=O)[C@H](CC(C)C)NC(=O)[C@H](CC(=O)O)NC(=O)[C@H](CO)NC(=O)[C@@H](NC(=O)[C@H](Cc1ccccc1)NC(=O)[C@@H](NC(=O)CNC(=O)[C@H](CCC(=O)O)NC(=O)CNC(=O)[C@@H](N)Cc1c[nH]cn1)[C@@H](C)O)[C@@H](C)O)C(=O)N[C@@H](CCC(=O)O)C(=O)N[C@@H](Cc1c[nH]c2ccccc12)C(=O)N[C@@H](CC(C)C)C(=O)N[C@@H](CCCCN)C(=O)N[C@@H](CCC(N)=O)C(=O)NCC(=O)NCC(=O)N1CCC[C@H]1C(=O)N[C@@H](CO)C(=O)N[C@@H](CO)C(=O)NCC(=O)N[C@@H](C)C(=O)N1CCC[C@H]1C(=O)N1CCC[C@H]1C(=O)N1CCC[C@H]1C(=O)N[C@@H](CO)C(N)=O [Cmpd 5100]
Plasma stability
  plasma stability as compared to native GLP-1: increased plasma stability
NIH:Swiss mice; dose 10 nmol/kg
  FOOD INTAKE at 60 min: −66%
NH/Swiss mice; 1 nmol/kg
  GLU LOWERING AUC240 @1 nmol/kg: −16%
[3]
  IC50: 1.8 nM

## HGEGTFTSDVTEYLEEEAVRLFIEWLKQGGPSSGAPPPS-NH2 [Cmpd 5129]
Plasma stability
  plasma stability as compared to native GLP-1: increased plasma stability
Plasma stability; second, narrower list of b152
  plasma stability as compared to native GLP-1: increased plasma stability
[4]
  EC50: 1.09 nM
[3]
  IC50: 3 nM

## CC[C@H](C)[C@H](NC(=O)[C@@H]1CCCN1C(=O)[C@@H](NC(=O)CNC(=O)CNC(=O)CNC(=O)[C@H](CCCNC(=N)N)NC(=O)CNC(=O)[C@H](CCCCN)NC(=O)[C@@H](NC(=O)[C@H](CC(C)C)NC(=O)[C@H](Cc1c[nH]c2ccccc12)NC(=O)[C@H](C)NC(=O)[C@@H](NC(=O)[C@H](Cc1ccccc1)NC(=O)[C@H](CCC(=O)O)NC(=O)[C@H](CCCCN)NC(=O)[C@H](C)NC(=O)[C@H](C)NC(=O)[C@H](CCC(N)=O)NC(=O)CNC(=O)[C@H](CCC(=O)O)NC(=O)[C@H](CC(C)C)NC(=O)[C@H](Cc1ccc(O)cc1)NC(=O)[C@H](CO)NC(=O)[C@H](CO)NC(=O)[C@@H](NC(=O)[C@H](CC(=O)O)NC(=O)[C@H](CO)NC(=O)[C@@H](NC(=O)[C@H](Cc1ccccc1)NC(=O)[C@@H](NC(=O)CNC(=O)[C@H](CCC(=O)O)NC(=O)[C@H](C)NC(=O)[C@@H](N)Cc1c[nH]cn1)[C@@H](C)O)[C@@H](C)O)C(C)C)[C@@H](C)CC)C(C)C)[C@@H](C)CC)C(N)=O [Cmpd 4957]
[4]
  EC50: 0.51 nM
[3]
  IC50: 0.1 nM
